Tested on: A-673 cells
Experiment: Cell viability, crystal violet staining
Assay type: cell-based
Settings: Homo sapiens, A673, cell viability, read-out: A-673 IC50 (nM) Cell viability
Method: To measure cell viability, cells were plated in 96-well plastic tissue culture plates at a density of 5×10^3 cells/well. Twenty-four hours after plating, cells were treated with various SMSMs. After 72 hours, the cell culture media were removed and plates were stained with […] of a solution containing 0.5% crystal violet and 25% methanol, rinsed with deionized water, dried overnight, and resuspended in […] citrate buffer (0.1 M sodium citrate in 50% ethanol) to assess plating efficiency. Intensity of crystal violet staining, assessed at 570 nm and quantified using a Vmax Kinetic Microplate Reader and Softmax software (Molecular Devices Corp., Menlo Park, Calif.), were directly proportional to cell number. Data were normalized to vehicle-treated cells and were presented as the mean±SE from representative experiments. SMSMs that are effective were determined for various cells lines.
A-673 cell viability […], splicing (IC50) and brain AUC/Plasma AUC of SMSMs were determined. As shown in the tables below SMSMs had high CNS exposure.

Structure (SMILES) | IC50
COc1cncc(-c2ccc(-c3ccc(N(C)[C@H]4C[C@]5(C)CC[C@](C)(C4)N5)nn3)c(O)c2)c1 [compound 211, 2-(6-(((1R,3s,5S)-1,5-dimethyl-8-azabicyclo[3.2.1]octan-3-yl)(methyl)amino)pyridazin-3-yl)-5-(5-methoxypyridin-3-yl)phenol] | 251 to 500 nM
COc1cc(-c2cc(O)c(-c3ccc(N(C)[C@H]4C[C@]5(C)CC[C@](C)(C4)N5)nn3)cc2F)cnn1 [compound 213, 2-(6-(((1R,3s,5S)-1,5-dimethyl-8-azabicyclo[3.2.1]octan-3-yl)(methyl)amino)pyridazin-3-yl)-4-fluoro-5-(6-methoxypyridazin-4-yl)phenol] | < 10 nM

Same assay, conditions: Homo sapiens, A673, cell viability, read-out: A-673 IC50 (nM), Cell viability

Structure (SMILES) | IC50
Cc1nnnn1-c1ccc(-c2ccc(N(C)[C@@H]3C[C@H]4CC[C@@H](C3)N4)nn2)c(O)c1 [compound 233, 2-(6-(((1R,3s,5S)-8-azabicyclo[3.2.1]octan-3-yl)(methyl)amino)pyridazin-3-yl)-5-(5-methyl-1H-tetrazol-1-yl)phenol] | > 1000 nM
CN(c1ccc(-c2ccc(-n3cnnc3)cc2O)nn1)[C@@H]1C[C@H]2CC[C@@H](C1)N2 [compound 235, 2-(6-(((1R,3s,5S)-8-azabicyclo[3.2.1]octan-3-yl)(methyl)amino)pyridazin-3-yl)-5-(4H-1,2,4-triazol-4-yl)phenol] | > 1000 nM
Cc1ccc(-c2ccc(-c3ccc(N(C)[C@@H]4C[C@H]5CC[C@@H](C4)N5)nn3)c(O)c2)cn1 [compound 236, 2-(6-(((1R,3s,5S)-8-azabicyclo[3.2.1]octan-3-yl)(methyl)amino)pyridazin-3-yl)-5-(6-methylpyridin-3-yl)phenol] | 101 to 250 nM
Cc1ncc(-c2ccc(-c3ccc(N(C)[C@@H]4C[C@H]5CC[C@@H](C4)N5)nn3)c(O)c2)cn1 [compound 237, 2-(6-(((1R,3s,5S)-8-azabicyclo[3.2.1]octan-3-yl)(methyl)amino)pyridazin-3-yl)-5-(2-methylpyrimidin-5-yl)phenol] | 501 to 1000 nM
Cc1ncn(-c2ccc(-c3ccc(N(C)[C@@H]4C[C@H]5CC[C@@H](C4)N5)nn3)c(O)c2)n1 [compound 244, 2-(6-(((1R,3s,5S)-8-azabicyclo[3.2.1]octan-3-yl)(methyl)amino)pyridazin-3-yl)-5-(3-methyl-1H-1,2,4-triazol-1-yl)phenol] | 101 to 250 nM
Cc1nnc(-c2ccc(-c3ccc(O[C@@H]4C[C@H]5CC[C@@H](C4)N5)nn3)c(O)c2)o1 [compound 247, 2-(6-(((1R,3s,5S)-8-azabicyclo[3.2.1]octan-3-yl)oxy)pyridazin-3-yl)-5-(5-methyl-1,3,4-oxadiazol-2-yl)phenol] | > 1000 nM
Oc1cc(-n2cccn2)ccc1-c1ccc(O[C@@H]2C[C@H]3CC[C@@H](C2)N3)nn1 [compound 248, 2-(6-(((1R,3s,5S)-8-azabicyclo[3.2.1]octan-3-yl)oxy)pyridazin-3-yl)-5-(1H-pyrazol-1-yl)phenol] | 501 to 1000 nM
CN(c1ccc(-c2ccc(-c3ccn(C)c(=O)c3)cc2O)nn1)[C@H]1C[C@]2(C)CCC[C@](C)(C1)N2 [compound 259, 4-(4-(6-(((1R,3s,5S)-1,5-dimethyl-9-azabicyclo[3.3.1]nonan-3-yl)(methyl)amino)pyridazin-3-yl)-3-hydroxyphenyl)-1-methylpyridin-2(1H)-one] | < 10 nM
CN(c1ccc(-c2ccc(-c3cnn(C)c(=O)c3)cc2O)nn1)[C@H]1C[C@]2(C)CCC[C@](C)(C1)N2 [compound 260, 5-(4-(6-(((1R,3s,5S)-1,5-dimethyl-9-azabicyclo[3.3.1]nonan-3-yl)(methyl)amino)pyridazin-3-yl)-3-hydroxyphenyl)-2-methylpyridazin-3(2H)-one] | < 10 nM
CNC(=O)c1cc2cc(-c3ccc(N(C)[C@H]4C[C@]5(C)CCC[C@](C)(C4)N5)nn3)c(O)cc2o1 [compound 261, 5-(6-(((1R,3s,5S)-1,5-dimethyl-9-azabicyclo[3.3.1]nonan-3-yl)(methyl)amino)pyridazin-3-yl)-6-hydroxy-N-methylbenzofuran-2-carboxamide] | 10 to 100 nM
C[C@]12CCC[C@](C)(C[C@@H](Oc3ccc(-c4ccc(-c5cn[nH]c5)cc4O)nn3)C1)N2 [compound 262, 2-(6-(((1R,3s,5S)-1,5-dimethyl-9-azabicyclo[3.3.1]nonan-3-yl)oxy)pyridazin-3-yl)-5-(1H-pyrazol-4-yl)phenol] | 101 to 250 nM
C[C@]12CCC[C@](C)(C[C@@H](Oc3ccc(-c4cc(F)c(-c5cn[nH]c5)cc4O)nn3)C1)N2 [compound 263, 2-(6-(((1R,3s,5S)-1,5-dimethyl-9-azabicyclo[3.3.1]nonan-3-yl)oxy)pyridazin-3-yl)-4-fluoro-5-(1H-pyrazol-4-yl)phenol] | < 10 nM
CN(c1ccc(-c2cc(F)c(-c3ccn(C)c(=O)c3)cc2O)nn1)[C@H]1C[C@]2(C)CCC[C@](C)(C1)N2 [compound 265, 4-(4-(6-(((1R,3s,5S)-1,5-dimethyl-9-azabicyclo[3.3.1]nonan-3-yl)(methyl)amino)pyridazin-3-yl)-2-fluoro-5-hydroxyphenyl)-1-methylpyridin-2(1H)-one] | < 10 nM
[2H]C([2H])([2H])Oc1cc(-c2ccc(-c3ccc(N(C)[C@H]4C[C@]5(C)CCC[C@](C)(C4)N5)nn3)c(O)c2)cnn1 [compound 268, 2-(6-(((1R,3s,5S)-1,5-dimethyl-9-azabicyclo[3.3.1]nonan-3-yl)(methyl)amino)pyridazin-3-yl)-5-(6-(methoxy-d3)pyridazin-4-yl)phenol] | < 10 nM
[2H]C([2H])([2H])Oc1cc(-c2cc(O)c(-c3ccc(N(C)[C@H]4C[C@]5(C)CCC[C@](C)(C4)N5)nn3)cc2F)cnn1 [compound 269, 2-(6-(((1R,3s,5S)-1,5-dimethyl-9-azabicyclo[3.3.1]nonan-3-yl)(methyl)amino)pyridazin-3-yl)-4-fluoro-5-(6-(methoxy-d3)pyridazin-4-yl)phenol] | < 10 nM
CN(c1ccc(-c2cc(F)c(-c3cn[nH]c3)cc2O)nn1)[C@@H]1C[C@H]2CCC[C@@H](C1)N2 [compound 271, 2-(6-(((1R,3s,5S)-9-azabicyclo[3.3.1]nonan-3-yl)(methyl)amino)pyridazin-3-yl)-4-fluoro-5-(1H-pyrazol-4-yl)phenol] | < 10 nM
CN(c1ccc(-c2ccc(-n3ccnc3)cc2O)nn1)[C@@H]1C[C@H]2CCC[C@@H](C1)N2 [compound 272, 2-(6-(((1R,3s,5S)-9-azabicyclo[3.3.1]nonan-3-yl)(methyl)amino)pyridazin-3-yl)-5-(1H-imidazol-1-yl)phenol] | 10 to 100 nM
Cc1ncc(-c2ccc(-c3ccc(N(C)[C@@H]4C[C@H]5CCC[C@@H](C4)N5)nn3)c(O)c2)o1 [compound 273, 2-(6-(((1R,3s,5S)-9-azabicyclo[3.3.1]nonan-3-yl)(methyl)amino)pyridazin-3-yl)-5-(2-methyloxazol-5-yl)phenol] | < 10 nM
Cc1ncc(-c2cc(O)c(-c3ccc(N(C)[C@@H]4C[C@H]5CCC[C@@H](C4)N5)nn3)cc2F)o1 [compound 274, 2-(6-(((1R,3s,5S)-9-azabicyclo[3.3.1]nonan-3-yl)(methyl)amino)pyridazin-3-yl)-4-fluoro-5-(2-methyloxazol-5-yl)phenol] | < 10 nM
CN(c1ccc(-c2ccc(-c3cnn(C)c(=O)c3)cc2O)nn1)[C@@H]1C[C@H]2CCC[C@@H](C1)N2 [compound 280, 5-(4-(6-(((1R,3s,5S)-9-azabicyclo[3.3.1]nonan-3-yl)(methyl)amino)pyridazin-3-yl)-3-hydroxyphenyl)-2-methylpyridazin-3(2H)-one] | 10 to 100 nM
CN(c1ccc(-c2ccc(-c3ccn(C)c(=O)c3)cc2O)nn1)[C@@H]1C[C@H]2CCC[C@@H](C1)N2 [compound 283, 4-(4-(6-(((1R,3s,5S)-9-azabicyclo[3.3.1]nonan-3-yl)(methyl)amino)pyridazin-3-yl)-3-hydroxyphenyl)-1-methylpyridin-2(1H)-one] | < 10 nM
CN(c1ccc(-c2cc(F)c(-c3cnn(C)c(=O)c3)cc2O)nn1)[C@@H]1C[C@H]2CCC[C@@H](C1)N2 [compound 286, 5-(4-(6-(((1R,3s,5S)-9-azabicyclo[3.3.1]nonan-3-yl)(methyl)amino)pyridazin-3-yl)-2-fluoro-5-hydroxyphenyl)-2-methylpyridazin-3(2H)-one] | < 10 nM
CN(c1ccc(-c2ccc(-c3cnn(C)c3)cc2O)nn1)[C@@H]1C[C@H]2CCC[C@@H](C1)N2 [compound 287, 2-(6-(((1R,3s,5S)-9-azabicyclo[3.3.1]nonan-3-yl)(methyl)amino)pyridazin-3-yl)-5-(1-methyl-1H-pyrazol-4-yl)phenol] | < 10 nM
[2H]C([2H])([2H])n1cc(-c2ccc(-c3ccc(N(C)[C@@H]4C[C@H]5CCC[C@@H](C4)N5)nn3)c(O)c2)cn1 [compound 288, 2-(6-(((1R,3s,5S)-9-azabicyclo[3.3.1]nonan-3-yl)(methyl)amino)pyridazin-3-yl)-5-(1-(methyl-d3)-1H-pyrazol-4-yl)phenol] | 10 to 100 nM
Cc1cc(-c2ccc(-c3ccc(N(C)[C@@H]4C[C@H]5CCC[C@@H](C4)N5)nn3)c(O)c2)cc(=O)n1C [compound 290, 4-(4-(6-(((1R,3s,5S)-9-azabicyclo[3.3.1]nonan-3-yl)(methyl)amino)pyridazin-3-yl)-3-hydroxyphenyl)-1,6-dimethylpyridin-2(1H)-one] | 251 to 500 nM

Same assay, conditions: Homo sapiens, A673, read-out: A-673 cell viability (IC50)

Structure (SMILES) | IC50
CN(c1ccc(-c2ccc(-c3ccn(C)c(=O)c3)cc2O)nn1)[C@H]1C[C@]2(C)CCC[C@](C)(C1)N2 [compound 259, 4-(4-(6-(((1R,3s,5S)-1,5-dimethyl-9-azabicyclo[3.3.1]nonan-3-yl)(methyl)amino)pyridazin-3-yl)-3-hydroxyphenyl)-1-methylpyridin-2(1H)-one] | < 1 nM

Same assay, conditions: cell viability, read-out: A-673 IC50 (nM), Cell viability

Structure (SMILES) | IC50
Oc1cc(-c2cn[nH]c2)ccc1-c1ccc(O[C@@H]2C[C@H]3CCC[C@@H](C2)N3)nn1 [compound 276, 2-(6-(((1R,3s,5S)-9-azabicyclo[3.3.1]nonan-3-yl)oxy)pyridazin-3-yl)-5-(1H-pyrazol-4-yl)phenol] | 101 to 250 nM

From patent US11008572B2, “Methods and compositions for modulating splicing” (SKYHAWK THERAPEUTICS, INC., priority 2017, dated 2021)
